Target: T1, DEAD-box helicase 3 X-linked (DDX3X) (Homo sapiens, UniProt O00571)
T1 construct: residues 1–580, N-terminal 6His tag
Assay: ITC (one-site model); supported by multi-wavelength AUC, ATPase assay (IC50 […]) and RNA unwinding assay (IC50 […])
Type: binding

T1 sequence (O00571 1-580): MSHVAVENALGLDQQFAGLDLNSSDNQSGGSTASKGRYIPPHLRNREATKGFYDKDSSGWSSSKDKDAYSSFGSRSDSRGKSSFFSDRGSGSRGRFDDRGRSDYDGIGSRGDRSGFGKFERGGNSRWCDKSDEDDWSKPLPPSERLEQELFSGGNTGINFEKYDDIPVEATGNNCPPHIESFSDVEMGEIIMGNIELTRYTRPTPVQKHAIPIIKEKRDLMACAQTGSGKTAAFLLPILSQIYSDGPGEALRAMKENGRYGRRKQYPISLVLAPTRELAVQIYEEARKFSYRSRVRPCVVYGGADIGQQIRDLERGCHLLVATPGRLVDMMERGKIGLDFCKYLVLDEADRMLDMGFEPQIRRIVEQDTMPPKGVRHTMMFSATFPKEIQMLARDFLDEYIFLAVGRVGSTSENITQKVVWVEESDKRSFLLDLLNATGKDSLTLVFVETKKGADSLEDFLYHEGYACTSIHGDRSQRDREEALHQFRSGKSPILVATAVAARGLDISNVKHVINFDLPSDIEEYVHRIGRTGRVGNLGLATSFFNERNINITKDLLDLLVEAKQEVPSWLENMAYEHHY

- Kd: 33 µM
SMILES: COc1ccc(Cn2cnc3c4ncn(Cc5ccc(OC)cc5)c4nc(=O)nc32)cc1 [RK-33]

From article PMC7016805, “RK-33 Is a Broad-Spectrum Antiviral Agent That Targets DEAD-Box RNA Helicase DDX3X” (Cells, 2020)
